Experimental data taken from ChEMBL document CHEMBL1132706 (J Med Chem, 1999).
pEC50, pIC50: −log10 of the molar value.

Legend:
[1] = tested on: CEM-SS; experiment: Compound was evaluated for the effect of Order of Addition on Cytoprotection against HIV-1RF at dilution 100, Pretreat with 100 uM; assay type: functional, Homo sapiens
[2] = tested on: CEM-SS; experiment: Compound was evaluated for the effect of Order of Addition on Cytoprotection against HIV-1RF at dilution 1000, Add at infection; assay type: functional, Homo sapiens
[3] = tested on: CEM-SS; experiment: Compound was evaluated for the effect of Order of Addition on Cytoprotection against HIV-1RF at dilution 100, Add at infection; assay type: functional, Homo sapiens
[4] = tested on: CEM-SS; experiment: Compound was evaluated for the effect of Order of Addition on Cytoprotection against HIV-1RF at dilution 1000, Pretreat with 100 uM; assay type: functional, Homo sapiens
[5] = tested on: MT4; experiment: Concentration of compound required to reduce MT-4 cell viability by 50%; assay type: functional, cell-based; conditions: Homo sapiens
[6] = tested on: CEM-SS; experiment: Compound was evaluated for the effect of Order of Addition on Cytoprotection against HIV-1RF at dilution 333, Add at infection; assay type: functional, Homo sapiens
[7] = tested on: CEM-SS; experiment: Compound was evaluated for the effect of Order of Addition on Cytoprotection against HIV-1RF at dilution 333, Pretreat with 100 uM; assay type: functional, Homo sapiens
[8] = tested on: MT4; experiment: Concentration of compound required to protect 50% of MT-4 cells against retroviral cytopathic effects by HIV-1 ([…]); assay type: functional, cell-based; conditions: Homo sapiens
[9] = tested on: CEM-SS; experiment: Compound was evaluated for the cytoprotection of CEM-SS cells by XTT cytoprotection assay through the NCI AIDS Screen (IC50); assay type: functional, cell-based; conditions: Homo sapiens
[10] = tested on: CEM-SS; experiment: Compound was evaluated for the cytoprotection of CEM-SS cells by XTT cytoprotection assay through the NCI AIDS Screen (EC50); assay type: functional, cell-based; conditions: Homo sapiens
[11] = biological target: T1, Human immunodeficiency virus type 1 integrase (Human immunodeficiency virus 1, UniProt Q7ZJM1)
T1 sequence (Q7ZJM1 whole entry): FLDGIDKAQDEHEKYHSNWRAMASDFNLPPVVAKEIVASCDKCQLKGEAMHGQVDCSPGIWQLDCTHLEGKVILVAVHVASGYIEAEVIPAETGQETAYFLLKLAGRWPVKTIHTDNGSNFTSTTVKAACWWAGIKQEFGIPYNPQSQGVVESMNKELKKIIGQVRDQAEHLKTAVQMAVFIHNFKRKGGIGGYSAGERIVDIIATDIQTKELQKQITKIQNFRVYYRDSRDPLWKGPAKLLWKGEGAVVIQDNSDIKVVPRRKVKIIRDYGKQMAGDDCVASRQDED
Description: Inhibition of HIV-1 integrase by radiolabeled oligonucleotide-based assay integration

[12] = biological target: T1, Human immunodeficiency virus type 1 integrase; remark: listed apart in the source
Description: Compound was evaluated for the inhibitory concentration against HIV-1 integrase by radiolabeled oligonucleotide-based assay 3''-processing

[13] = tested on: CEM-SS; experiment: Compound was evaluated for the cytoprotection fo CEM-SS cells by XTT cytoprotection assay through the NCI AIDS Screen; assay type: functional, cell-based; conditions: Homo sapiens
[14] = tested on: CEM-SS; experiment: Compound was evaluated for the cytoprotection of CEM-SS cells by XTT cytoprotection assay through the NCI AIDS Screen; Not reached due to cytotoxicity; assay type: functional, cell-based, Homo sapiens

In the case of `Cc1cn([C@H]2C[C@H](N=[N+]=[N-])[C@@H](CO)O2)c(=O)[nH]c1=O` [ZIDOVUDINE], the Control [1] was 114%, the Control [2] was 5% and the Control [3] was 35%. For the same compound, the Control [4] was 121%, the pIC50 [5] was 4.00 and the Control [6] was 3%. For the same compound, the Control [7] was 119% and the pEC50 [8] was 8.30.

Compound `CC(=O)Oc1ccc(/C=C/C(=O)NCCOC(=O)/C=C/c2ccc(OC(C)=O)c(OC(C)=O)c2)cc1OC(C)=O` has a pIC50 [9] of 4.81, a pEC50 [10] of under 4.81 and a pIC50 [11] of 4.00. It also gave a pIC50 [12] of under 3.48.

For `O=C(/C=C/c1ccc(O)c(O)c1)OCCCOC(=O)/C=C/c1ccc(O)c(O)c1`, the pIC50 [11] was 5.12, the pIC50 [13] was 4.86 and the EC50 [14] was “Not reached”. It also gave a pIC50 [12] of 4.56.
